Test results: patent US10858384B2, “Synthetic molecule constructs” (KODE BIOTECH LIMITED, priority 2004, dated 2020)

How the values were obtained:
[1] = test system: RBCs; test: Insertion efficiency: post-transformation supernatant solutions, tube serology; assay type: cell-based
Method: The post-transformation supernatant solutions (from Atri-sp-Ad-DOPE (I) at 0.08 mg/mL, 0.05 mg/mL and 0.03 mg/mL, and Btri-sp-Ad-DOPE (VI) at 0.6 mg/mL, 20 μL) were added neat and in a 1:2 dilution to washed, packed RBCs (60 μL). The tubes were incubated in a 37° C. waterbath for one hour, with mixing taking place every 15 minutes.
The transformed RBCs were washed 3× with PBS and then suspended in Cellstab™ at the appropriate concentration for serology testing.

[2] = test system: RBCs; test: Insertion efficiency: post-transformation solutions concentrated 20x, Diamed serology; assay type: cell-based; conditions: post-transformation solution concentrated 20×, from 0.60 mg/mL
Method: In addition, the post-transformation solutions were concentrated 20× and compared in parallel with the transformation solutions of known concentration. Only the post-transformation solutions derived from the 0.08 mg/mL Atri-sp-Ad-DOPE (I) and 0.6 mg/mL Btri-sp-Ad-DOPE (VI) solutions were tested.
Post-transformation solutions (20 μL) were dialysed (pore size 500 Da) against de-ionised water for 2 days. The samples were left to dry in a fumehood for 10 days. At the end of this time they were transferred into a rotavapor flask and set on the rotavapor to rotate under vacuum with no heat overnight. Samples were dried in a water bath at 40° C. and washed over into smaller vessels with chloroform-methanol 2:1 leaving significant amounts of dried cellular material. The chloroform-methanol 2:1 washings were dried down, washed over again into test-tubes with chloroform-methanol 2:1 and dried down. These samples were redissolved in 1 mL of 1× PBS and used for transformation experiments. The cellular material in the bottom of the flasks was washed out with water into another set of tubes.
The post-transformation solutions (from Atri-sp-Ad-DOPE (I) at 0.08 mg/mL and Btri-sp-Ad-DOPE (VI) at 0.6 mg/mL, 20 μL) were added to washed, packed RBCs (60 μL). […]

[3] = test system: RBCs; test: Detectable transformation ability of synthetic glycolipids (agglutination); assay type: cell-based; conditions: agglutination with the appropriate antibody
Source text: The synthetic glycolipid must also be able to insert into the membrane and be recognisable to the appropriate antibody for transformation to be detected by agglutination. Initial tests on the molecules were to establish solubility and thus eliminate those molecules that were unsuitable for use in the transformation of cells.

[4] = test system: RBCs; test: Evaluation of insertion of different lipid tails by agglutination with the relevant antisera; assay type: cell-based; design: scale not given here; conditions: second series
Source text: Transformation of RBCs with synthetic glycolipids with different lipid tails was first evaluated (Tables 22 and 24).

[5] = test system: group O red blood cells (RBCs); test: Tube serology of group O RBCs transformed at 37° C. with synthetic glycolipids; assay type: cell-based, human; conditions: 0.25 mg/mL, Day 44
Method: (§1) Washed packed group O red blood cells (RBCs) (3 parts by volume) and the synthetic glycolipid solution (1 part by volume, varying concentrations) were added to an eppendorf tube. The tube was incubated in a 37° C. waterbath for one hour, mixing every 15 minutes. […]
(§2) Tube serology and Diamed gel-card results for RBCs transformed with the different synthetic molecule constructs are provided in Table 38. Results for the stability of the RBCs transformed with the different synthetic glycolipids at different concentrations are provided in Tables 39 to 44.

[6] = test system: embryos; test: Embryo modification, test for insertion by fluorescence; assay type: cell-based
Method: The embryo zona pellucida was removed by treating embryos with 0.5% pronase in a 37° C. oven for 6 minutes or until all zonas were removed. Micro-drops were prepared by adding 5 μl of synthetic glycolipid Atri-sp-Ad-DOPE (I) or Btri-sp-Ad-DOPE (VI), at a concentration of 1 mg/mL to a 45 μl drop of M2 media overlaid with mineral oil. All embryo groups were incubated in the 50 μl micro-drops for 1 hour at 37° C. Embryos from experimental and control groups were washed 3× with M2 media.
Embryos from experimental and control groups were placed into a micro-drop of corresponding antibody and incubated for 30 min at 37° C. Embryos from experimental and control groups were washed 3× with M2 media.
Embryos from all experimental and control groups were placed into micro-drops of anti-mouse Ig FITC (1:50 dilution anti-mouse Ig FITC in M2) and incubated for 30 min at 37° C. Embryos from experimental and control groups were washed 3× with M2 media. Embryos were mounted on microscope slides in a 5 μl drop of M2 and the drops overlaid with oil.
The slides were viewed under a fluorescence microscope.

[7] = Solubility of synthetic glycolipids in hot PBS; assay type: physicochemical; conditions: hot PBS
Source text: In the context of this description the phrase “water soluble” means a stable, single phase system is formed when the synthetic molecule construct is contacted with water or saline (such as PBS) in the absence of organic solvents or detergents, and the term “solution” has a corresponding meaning.
For use in the transformation of cells the first criterion that synthetic glycolipids must satisfy is that they are soluble in aqueous solvents, e.g. phosphate buffered saline.
Initial tests on the molecules were to establish solubility and thus eliminate those molecules that were unsuitable for use in the transformation of cells.

[8] = test system: endometrial cells and embryos; test: Attachment of transformed endometrial cells to modified embryos; assay type: cell-based; conditions: 15 minutes at 37° C.
Method: Modified embryos (BioG-Avidin-BioIgG^B and BioG-Avidin-BioIgM^A) were prepared in accordance with the methods described in the specification accompanying the international application no. PCT/NZ03/00059 (published as WO03/087346).
Two concave glass slides were prepared, one with two wells of synthetic glycolipid Atri-sp-Ad-DOPE (I) inserted endometrial cells and the other with two wells of synthetic glycolipid Btri-sp-Ad-DOPE (VI) inserted endometrial cells.
The embryos were surrounded with endometrial cells. The wells were covered with mineral oil and incubated for 15 minutes at 37° C. Using a wide bore handling pipette each group of embryos were carefully transferred to a fresh drop of M2 media. The embryos were gently washed. The embryos were gently transferred into 2 μL of M2 media on a marked microscope slide. Each drop was overlaid with mineral oil
Under a central plane of focus on an Olympus microscope the number of endometrial cells adhered to the embryos in each group was assessed. The number of cells adhered to each embryo was recorded.

[9] = test system: group O red blood cells (RBCs); test: Diamed gel-card agglutination of group O RBCs transformed at 37° C. with synthetic glycolipids; assay type: cell-based, human; design: scale not given here; conditions: 0.25 mg/mL; Day 116; Cellstab
Method: as §1, §2

Q: For `CCCCCCCC/C=C\CCCCCCCC(=O)OC[C@H](COP(=O)(O)OCCNC(=O)CCCCC(=O)NCCCO[C@@H]1O[C@H](CO)[C@H](O)[C@H](O[C@H]2O[C@H](CO)[C@H](O)[C@H](O)[C@H]2O)[C@H]1O[C@@H]1O[C@@H](C)[C@@H](O)[C@@H](O)[C@@H]1O)OC(=O)CCCCCCC/C=C\CCCCCCCC` [Btri-sp-Ad-DOPE (VI)], which “Score (tube serology)” value ([1]; 1:2, pre-trans conc 0.60 mg/mL) is on record?
A: 0

Q: What about the “Score (tube serology)” value ([1]; neat, pre-trans conc 0.60 mg/mL) of the same compound?
A: vw+

Q: What about the “Score (Diamed serology)” value [2] of the same compound?
A: 0

Q: And the Detectable transformation ability [3]?
A: Yes

Q: And the Agglutination score ([4]; 60 μg/mL, Alba anti-B)?
A: 0

Q: What about the Agglutination score ([4]; 60 μg/mL, Bio anti-B) of the same compound?
A: 0

Q: And the Agglutination score ([4]; 125 μg/mL, Alba anti-B)?
A: 0

Q: And the Agglutination score ([4]; 125 μg/mL, Bio anti-B)?
A: 0

Q: What about the “Agglutination, manual tube serology, Bioclone anti-B” value ([5]; Alsevers) of the same compound?
A: w+

Q: What about the “Agglutination, manual tube serology, Bioclone anti-B” value ([5]; Cellstab) of the same compound?
A: ^‡

Q: What about the “Transformation of embryos visualised by fluorescence” value ([6]; 1 mg/mL stock in micro-drop, 1 hour 37° C.) of the same compound?
A: negative result

Q: What about the “Fluorescence score after incubation with IgFITC Probe” value ([6]; embryos, inserted antigen 1 mg/mL, 1 hour at 37° C., 1° antibody Anti-B Bioclone, anti-mouse Ig FITC 1:50) of the same compound?
A: 0

Q: And the Water solubility [7]?
A: Yes

Q: What about the “Average number of endometrial cells attached to modified embryos” value ([8]; embryos modified with BioG-Avidin-BioIgG^B) of the same compound?
A: 6.7

Q: What about the “Average number of endometrial cells attached to modified embryos” value ([8]; embryos modified with BioG-Avidin-BioIgM^A) of the same compound?
A: 3.4

Q: And the “Agglutination, Diamed gel-cards, Albaclone anti-B” value [9]?
A: 0
